The structures appear in SMILES notation.

Chain of hMC2 receptor (Q01718 whole entry): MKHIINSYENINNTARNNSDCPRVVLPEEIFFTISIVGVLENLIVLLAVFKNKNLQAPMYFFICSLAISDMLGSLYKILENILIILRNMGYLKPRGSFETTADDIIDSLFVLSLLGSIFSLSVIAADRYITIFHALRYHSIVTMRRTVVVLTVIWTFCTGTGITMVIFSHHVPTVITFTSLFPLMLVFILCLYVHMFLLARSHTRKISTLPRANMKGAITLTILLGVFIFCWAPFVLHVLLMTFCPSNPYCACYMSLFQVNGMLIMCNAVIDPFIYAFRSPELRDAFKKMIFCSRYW
Chain of hMC2 receptor (Q8TCY5 whole entry partner): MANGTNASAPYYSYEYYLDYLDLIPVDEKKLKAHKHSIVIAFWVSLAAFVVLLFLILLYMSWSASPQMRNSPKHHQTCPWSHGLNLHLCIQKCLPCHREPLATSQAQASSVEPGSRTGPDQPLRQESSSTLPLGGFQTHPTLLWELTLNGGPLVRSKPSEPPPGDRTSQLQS

The test addresses hMC2 receptor (Homo sapiens, UniProt Q01718). Briefly: hMC2 membrane binding assay ([125I]ACTH (1-39) Tyr23, SPA). Also on record: scale not given here. Conditions: crude hMC2R membranes from CRE-bla-CHO-K1 cells expressing hMC2 receptor and hMRAP; [125I]ACTH (1-39) Tyr23 0.2 nM; 1.5 hours at room temperature; read-out: MC2R binding potency. Put shortly:
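Ki comes from non-linear regression of SPA scintillation counts. Displacement of 0.2 nM [125I]ACTH(1-39) Tyr23 by compound dose series (usually 0–10,000 nM final) ran 1.5 h at room temperature. Membranes came from CHO-K1 CRE-bla cells stably expressing hMC2R plus hMRAP, bead-coupled in pH 7.4 buffer with 0.2% BSA.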
For the compound `CCOc1ncccc1-c1ccc(N2CCN(C(=O)c3ccc(F)cc3Cl)C[C@H]2CC)c(C(=O)N[C@@H]2CCN(C)C2)n1` [Compound 1-261, 5-[(2R)-4-[2-chloro-4-fluorobenzoyl]-2-ethylpiperazin-1-yl]-2′-ethoxy-N-[(3R)-1-methylpyrrolidin-3-yl]-[2,3′-bipyridine]-6-carboxamide], the Ki was less than 10 nM.

Turning to `CCOc1ncccc1-c1ccc(N2CCN(C(=O)C3(C(F)(F)F)CCCC3)C[C@H]2CC)c(C(=O)NC[C@@H]2CCCN2C)n1` [Compound 1-332, 2′-ethoxy-5-[(2R)-2-ethyl-4-[1-(trifluoromethyl)cyclopentanecarbonyl]piperazin-1-yl]-N-{[(2S)-1-methylpyrrolidin-2-yl]methyl}-[2,3′-bipyridine]-6-carboxamide], the Ki is less than 10 nM.

Take `CCOc1ncccc1-c1ccc(N2CCN(C(=O)c3ccc(C)cc3Cl)C[C@H]2CC)c(C(=O)N[C@@H]2CCNC2)c1F` [Compound 1-110, 6-[(2R)-4-(2-chloro-4-methylbenzoyl)-2-ethylpiperazin-1-yl]-3-(2-ethoxypyridin-3-yl)-2-fluoro-N-[(3R)-pyrrolidin-3-yl]benzamide]: the Ki is less than 10 nM.

On to `CCOc1ncccc1-c1ccc(N2CCN(C(=O)c3ccc(OC)cc3C(F)(F)F)C[C@H]2CC)c(C(=O)NCCN(C)C)n1` [Compound 1-169, N-[2-(dimethylamino)ethyl]-2′-ethoxy-5-[(2R)-2-ethyl-4-[4-methoxy-2-(trifluoromethyl)benzoyl]piperazin-1-yl]-[2,3′-bipyridine]-6-carboxamide], for which the Ki is less than 10 nM.

As to `CCOc1ncccc1-c1ccc(N2CCN(C(=O)C3(C(F)(F)F)CCC3)C[C@H]2CC)c(C(=O)N[C@@H]2CCNC2)n1` [Compound 1-280, 2′-ethoxy-5-[(2R)-2-ethyl-4-[1-(trifluoromethyl)cyclobutanecarbonyl]piperazin-1-yl]-N-[(3R)-pyrrolidin-3-yl]-[2,3′-bipyridine]-6-carboxamide], the Ki was less than 10 nM.

Turning to `CCOc1ncccc1-c1ccc(N2CCN(C(=O)c3sc(Cl)cc3Cl)C[C@H]2CC)c(C(=O)N[C@@H]2CCN(C)C2)n1` [Compound 1-380, 5-[(2R)-4-(3,5-dichlorothiophene-2-carbonyl)-2-ethylpiperazin-1-yl]-2′-ethoxy-N-[(3R)-1-methylpyrrolidin-3-yl]-[2,3′-bipyridine]-6-carboxamide], the Ki is less than 10 nM.

`CCOc1ncccc1-c1ccc(N2CCN(C(=O)c3ccc(Cl)cc3C(F)(F)F)C[C@H]2CC)c(C(=O)NC[C@@H]2CCN2)c1` [Compound 1-97, N-{[(2S)-azetidin-2-yl]methyl}-2-[(2R)-4-[4-chloro-2-(trifluoromethyl)benzoyl]-2-ethylpiperazin-1-yl]-5-(2-ethoxypyridin-3-yl)benzamide]: the Ki is less than 10 nM.

`CCOc1ncccc1-c1ccc(N2CCN(C(=O)C3(CC(F)F)CCC3)C[C@H]2CC)c(C(=O)N[C@@H]2CCNC2)n1` [Compound 1-328, 5-[(2R)-4-[1-(2,2-difluoroethyl)cyclobutanecarbonyl]-2-ethylpiperazin-1-yl]-2′-ethoxy-N-[(3R)-pyrrolidin-3-yl]-[2,3′-bipyridine]-6-carboxamide]: the Ki is less than 10 nM.

The values are drawn from patent US10981894B2, “Melanocortin subtype-2 receptor (MC2R) antagonists and uses thereof” (Crinetics Pharmaceuticals, Inc., priority 2018, dated 2021).
